Residues, ends and D or L forms follow the SMILES beside them. *: point of attachment. Cbz = O=C(OCc1ccccc1)*
Legend:
NLRP3 [1] = assay: P2Y2-induced NLRP3 degradation in transfected 293T cells (western blot); assay type: cell-based; conditions: for down regulation of NLRP3 by P2Y2: 293T cells co-expressing NLRP3 and GFP-P2Y2; for NLRP3 degradation: pharmacological inhibition of SRC
Experimental: Cells were washed twice with PBS and lysed in appropriated buffer (250 mM NaCl, 0.1% NP-40, 5 mM EDTA, 10 mM Na3VO4, 10 mM NaF, 5 mM DTT, 3 mM Na4P207, 1 mM EGTA, 10 mM Glycerol phosphate, 10 mM Tris-Hcl (pH=7.5) and the protease and phosphatase inhibitors (Roche)). 10-40 μg of protein extracts were run on 4-12% or 10% SDS-PAGE and transferred at 4° C. onto a nitrocellulose membrane (0.2 Micron). After incubation for 2 hours at room temperature with 5% nonfat milk or BSA (Bovine Serum Albumine) in Tris-buffered saline and 0.1% Tween 20 (TBS-Tween), membranes were incubated with primary antibody at 4° C. overnight. […] The primary antibodies against GFP (D5.1), PYK2 (5E2). PYK2Y402*, SRC (36D10), SRCY416*, AMPKα (F6), AMPKT172* (40H9) and LC3A/B were obtained from Cell Signaling. Primary antibodies against IL-1β, CASP1, ASC (TMS1), IRF5, PNX1, Actin and GAPDH were purchased from Abcam. The primary antibodies anti-CAp24 (42-50) and anti-gp120 (2G12) were from NIH (AIDS Research and Reference Reagent Program, Division of AIDS, NIAID). Antibody anti-NLRP3 was from Adipogen (Cryo-2), anti-P2Y2 was from Alomone, anti-ubiquitin (P4D1) was from Santa-Cruz, anti-TOM20 and anti-Flag were from Sigma. For immunoprecipitations, cell pellets were lysed 6 hours after infection or 24 hours after transfection in CHAPS buffer (50 mM Tris-HCl (pH=7.5), 0.50 M NaCl and 0.1% CHAPS) containing protease and phosphatase inhibitors. Anti-NLRP3 (Origene), anti-P2Y2 (Abcam) antibodies were incubated overnight at 4° C. with the cell lysates. The complexes were precipitated by incubation with Protein G Sepharose™ 4 Fast Flow (GE Healthcare). For anti-Flag immunoprecipitations, anti-Flag® M2 affinity Gel (Sigma) were incubated for overnight at 4° C. with the cell lysates. […] Western blots shown are representative of at least of three independent experiments.

NLRP3 [2] = assay: NLRP3 ubiquitinylation/degradation in HIV-1NL4-3-infected THP-1 monocytes; assay type: cell-based, human; conditions: THP-1, HIV-1NL4-3 infection
Experimental: (§1) Cells were washed twice with PBS and lysed in appropriated buffer (250 mM NaCl, 0.1% NP-40, 5 mM EDTA, 10 mM Na3VO4, 10 mM NaF, 5 mM DTT, 3 mM Na4P207, 1 mM EGTA, 10 mM Glycerol phosphate, 10 mM Tris-Hcl (pH=7.5) and the protease and phosphatase inhibitors (Roche)). 10-40 μg of protein extracts were run on 4-12% or 10% SDS-PAGE and transferred at 4° C. onto a nitrocellulose membrane (0.2 Micron). After incubation for 2 hours at room temperature with 5% nonfat milk or BSA (Bovine Serum Albumine) in Tris-buffered saline and 0.1% Tween 20 (TBS-Tween), membranes were incubated with primary antibody at 4° C. overnight. […] The primary antibodies against GFP (D5.1), PYK2 (5E2). PYK2Y402*, SRC (36D10), SRCY416*, AMPKα (F6), AMPKT172* (40H9) and LC3A/B were obtained from Cell Signaling. Primary antibodies against IL-1β, CASP1, ASC (TMS1), IRF5, PNX1, Actin and GAPDH were purchased from Abcam. The primary antibodies anti-CAp24 (42-50) and anti-gp120 (2G12) were from NIH (AIDS Research and Reference Reagent Program, Division of AIDS, NIAID). Antibody anti-NLRP3 was from Adipogen (Cryo-2), anti-P2Y2 was from Alomone, anti-ubiquitin (P4D1) was from Santa-Cruz, anti-TOM20 and anti-Flag were from Sigma. […]

HIV-1NL4-3 = assay: HIV-1 permissiveness of THP-1 monocytes (intracellular p24); assay type: cell-based; conditions: human monocytes THP-1
Experimental: as §1

[3] = tested on: PMA-treated THP-1 macrophages stimulated with lipopolysaccharide and ATP (LPS+ATP); assay: IL-1β secretion by LPS+ATP-stimulated PMA-treated THP-1 macrophages (ELISA); assay type: cell-based, Human; conditions: for IL-1β secretion: after stimulation with LPS+ATP; for exacerbated IL-1β secretion of P2Y2-inhibited THP-1 macrophages: LPS+ATP stimulation, added 18 hours before; for IL-10 secretion: PMA-treated THP-1 macrophages, LPS+ATP, drug 100 μM during stimulation, FIG. 1a
Experimental: (§2) Human THP-1 cells were cultured in RPMI 1640 media, supplemented with 10% FBS. THP-1 cells were differentiated by treatment for 3 hours with 100 nM phorbol-12-myristate-13-acetate (PMA, Invivogen). After 2 days THP-1 cells were stimulated first 3 hours with ultrapure LPS from E. coli (10 ng/ml, LPS) and then stimulated for 6 hours with ATP (5 mM, Sigma). Supernatants were used for cytokine assays and cell lysates for western blot analysis. Kaempferol (100 μM, Sigma), OxATP (100 μM, Sigma), Suramine (100 μM, Sigma), or Bafilomycine A1 ([…], TOCRIS) were added during LPS+ATP stimulation, while, PP1 (20 μM, Sigma), PP2 (20 μM, Sigma). MnTBAP (10 μM, Sigma) and NAC (100 μM, Sigma) 18 hours before LPS+ATP stimulations. Commercially available ELISA kits for […] (Ebioscience), IL-10 (BD) or LDH (Roche) were used according to the manufacturers' instructions.

R5-tropic HIV-1BaL = assay: HIV-1BaL replication in human MDMs (p24 release); assay type: cell-based
[4] = tested on: M2 human monocyte derived macrophages (MDMs); assay: M1 polarization assays in M2 monocyte derived macrophages; assay type: cell-based
Experimental: M2 MDMs that express at 100% the differentiation marker CD11b and the scavenger receptor M2 marker CD163 were then seeded (0.5×10^6/ml in macrophage medium+10% FBS), let to be attached on the plates for 2 hours at 37° C. before treatments with interferon γ (IFNγ) (1 μg/0.5×10^6 MDMs), kaempferol (100 μM) or DMSO for control cells. MDMs and supernatants were harvest for flow cytometry and confocal microscopy analysis at 24 hours post-kaempferol treatments and for cytokines IL-10 ELISA analyses at 96 hours post-kaempferol treatments. Expressions of CD163 and IRF5 were respectively determined by flow cytometry and western blot. Release of IL-1β and IL-10 was determined as indicated above by ELISA.

[5] = tested on: PMA-differentiated THP-1 macrophages stimulated with LPS+ATP; assay: Viability / LDH release of LPS+ATP-stimulated THP-1 macrophages; assay type: cell-based, Human; conditions: in comparison with the control
Experimental: as §2

[6] = tested on: LPS+ATP-stimulated PMA-treated THP-1 macrophages; assay: Quantification of ROS production (H2DCFDA, MitoSOX); assay type: cell-based, Human; conditions: detectable with H2DCFDA or MitoSOX
Experimental: Mitochondria-associated ROS levels were measured by staining cells with H2DCFDA at 5 μM for 1 hour or with MitoSOX at 0.25 μM for 10 minutes at 37° C. Cells were then washed twice with HBSS solution and suspended in cold HBSS solution containing 1% FBS for FACS analysis^25.

[7] = tested on: LPS+ATP-stimulated PMA-treated THP-1 macrophages; assay: Fragmentation of the mitochondrial network (TOM20, Mitotracker Green fluorescence microscopy); assay type: cell-based, Human; conditions: TOM20 or Mitotracker Green
Experimental: For immunofluorescence, cells were fixed in 2% paraformaldehyde-PBS for 5 minutes, permeabilized in 0.3% Triton (Sigma) in PBS, and incubated with PBS-FBS 20% for 1 hour, as previously described^39. Mitochondrial fragmentation and actin polymerization were analysed respectively using Mitotracker® Green FM (20 nM, Invitrogen) and Alexa Fluor 488 Phalloidin. For immunohistochemistry, 4-μm sections were cut from the paraffin blocks of the paraformaldehyde fixed tissues from mice, Macaca fascicularis or humans. After paraffin removal, slides were subjected to antigen retrieval by microwave boiling in 1 mmol/l EDTA pH 9.0. Slides were incubated with anti-P2Y2 (Alomone), anti-NLRP3 (Abcam), anti-CD163 (BD laboratories), anti-gp120 (2G12), anti-CD40 (BD laboratories) or anti-CASP1 p10 (Santa Cruz) overnight after permeabilization in 0.3% Triton for 5 minutes and saturation in PBS-FBS 20% for 1 hour. […] Cells were analysed by fluorescent confocal microscopy on Leica SPE (using a 63× objective). […] Mice alveolar macrophages were dissociated from lung (using Lung Dissociation kit from Miltenyi Biotech) and analysed using anti-CD11b (APC-Cy7) (BD laboratories), anti-CD11c (PE-Cy7) (BioLegend), anti-CD40 (eFluo710) (BioLegend), anti-F4/80 (FITC) (ebioscience) and anti-GR-1 (PE) (ebioscience).

NLRP3 inflammasome = assay: IL-1β maturation under P2Y2 inhibition; assay type: cell-based; conditions: P2Y2i alone
Experimental: as §1

For O=C1C(=Cc2ccc([N+](=O)[O-])cc2)CS(=O)(=O)CC1=Cc1ccc([N+](=O)[O-])cc1 [G5], the “down regulation of NLRP3 by P2Y2” value (NLRP3 [1]) was “partially inhibited”, the “ubiquitinylation/degradation of NLRP3” value (NLRP3 [2]) was “increased” and the “HIV-1 permissiveness (intracellular accumulation of p24)” value (HIV-1NL4-3) was “enhanced”.

In the case of CC(C)C[C@@H](C=O)NC(=O)[C@H](CC(C)C)NC(=O)[C@H](CC(C)C)NC(=O)OCc1ccccc1 [MG132] (Cbz-Leu-Leu-Leu-aldehyde), the “down regulation of NLRP3 by P2Y2” value (NLRP3 [1]) is reported as “fully suppressed”.

O=c1ccn([C@@H]2O[C@H](COP(=O)(O)OP(=O)(O)OP(=O)(O)OP(=O)(O)Oc3ccccc3)[C@@H](O)[C@H]2O)c(=O)[nH]1 [MRS2768] was tested, and the IL-1β secretion [3] was “impaired”.

With O=c1nc2[nH]c(=O)[nH]c2c([O-])[nH]1.[Na+] [MSU, monosodium urate crystals] the “p24 antigen release and replication of R5-tropic HIV-1BaL” value (R5-tropic HIV-1BaL) was “reduced”.

O=C(O)c1ccc(/C2=C3\C=CC(=N3)/C(c3ccc(C(=O)O)cc3)=c3/cc/c4[n]3[Mn]([Cl])[n]3c2ccc3/C(c2ccc(C(=O)O)cc2)=C2/C=CC(=N2)\C=4c2ccc(C(=O)O)cc2)cc1 [MnTBAP] was tested, and the “exacerbated IL-1β secretion of P2Y2-inhibited THP-1 macrophages” value [3] was “blunted”.

CC(=O)N[C@@H](CS)C(=O)O [N-Acetyl Cysteine] was tested, and the “exacerbated IL-1β secretion of P2Y2-inhibited THP-1 macrophages” value [3] was “blunted”.

In the case of Cc1ccc(-c2nn(C(C)(C)C)c3ncnc(N)c23)cc1 [PP1], the NLRP3 degradation (NLRP3 [1]) is reported as “impaired”.

In the case of CC(C)(C)n1nc(-c2ccc(Cl)cc2)c2c(N)ncnc21 [PP2], the NLRP3 degradation (NLRP3 [1]) is reported as “impaired”.

In the case of O=c1c(O)c(-c2ccc(O)cc2)oc2cc(O)cc(O)c12 [kaempferol], the IL-10 secretion [3] is reported as “increased”, the IL-10 secretion ([4]; M2 human MDMs, kaempferol 100 μM, FIG. 1c) is reported as “increased” and the “secretion of the M2 cytokine interleukin-10 (IL-10)” value ([4]; MDMs, kaempferol 100 μM, 96 hours, FIG. 1e) is reported as “reduced”. For the same compound, the IL-1β secretion ([4]; MDMs, kaempferol 100 μM, FIG. 1c) was “induction”, the M1 polarization ([4]; MDMs, kaempferol 100 μM, FIG. 1e) was “favoured the M1 polarization” and the “membrane expressions of the M2 markers such as CD163” value ([4]; flow cytometry, 24 hours post-kaempferol) was “diminished”. The “expression of IFN regulatory factor 5 (IRF5)” value ([4]; western blot) was “increased”, the “viability (cell death, pyroptosis)” value [5] was “lost their viability” and the “LPS+ATP-induced ROS production” value [6] was “increased”. The “fragmentation of the mitochondrial network” value [7] was “caused fragmentation” and the IL-1β maturation (NLRP3 inflammasome) was “stimulation”.

For Nc1ncnc2c1ncn2[C@@H](C=O)O[C@@H](C=O)COP(=O)(O)OP(=O)(O)OP(=O)(O)O [oxidized ATP], the IL-1β secretion [3] was “inhibited”.

Cc1ccc(C(=O)Nc2ccc(S(=O)(=O)O)c3cc(S(=O)(=O)O)cc(S(=O)(=O)O)c23)cc1NC(=O)c1cccc(NC(=O)Nc2cccc(C(=O)Nc3cc(C(=O)Nc4ccc(S(=O)(=O)O)c5cc(S(=O)(=O)O)cc(S(=O)(=O)O)c45)ccc3C)c2)c1 [suramin] was tested, and the IL-10 secretion [3] was “increased”.

Reference: patent US20200297749A1, “Methods and Pharmaceutical Composition for Modulation Polarization and Activation of Macrophages” (priority 2015, published 2020)
